Nine molecules from PubChem BioAssay (NCI) can be followed below.

Among the test systems are UO-31 renal; SNB-19 CNS; DU-145 prostate; K-562 leukemia; SK-MEL-2 melanoma; LOX IMVI melanoma; T-47D breast; RPMI-8226 leukemia; M19-MEL melanoma.
Common to all, as to assay: NCI-60 cell line screen, 48 h

Where “and” joins values, the source holds several entries; their conditions need not be identical. Equal entries are not always repeated.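 Dose response: 5 concentrations. Exposure: 48 h. Format: 96-well plates. Endpoint: linear interpolation; highest concentration if not reached. GI50 marks 50% less growth. At the TGI there is no net growth.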

Take `COC(=O)Nc1nc2ccc(Sc3ccc(NC(=O)Nc4cc(C(F)(F)F)ccc4F)cc3)cc2[nH]1`: the GI50 in the assay on UO-31 renal was 5.9 µM; with SNB-19 CNS, 6.98 µM; in the assay on DU-145 prostate, 4.15 µM; with K-562 leukemia it was 0.739 µM; in the assay on SK-MEL-2 melanoma it was 3.15 µM; in the assay with LOX IMVI melanoma, 1.5 µM. The GI50 was 4.43 µM in the assay with T-47D breast and 7.14 µM in the assay with RPMI-8226 leukemia. In addition, the TGI in the assay with UO-31 renal amounted to 19.8 µM; with SNB-19 CNS, 25 µM; in the assay with DU-145 prostate, 8.27 µM; in the assay with K-562 leukemia, 5.89 µM; with SK-MEL-2 melanoma it was 10.6 µM; in the assay with LOX IMVI melanoma it was 6.16 µM. Besides, the TGI stood at 11.2 µM in the assay on T-47D breast and 24.1 µM in the assay on RPMI-8226 leukemia.

For `CCCCCCCCCCCCNC(=O)[C@H]1CSC(c2ccc(OC)c(F)c2)N1` (some centres not stated), the GI50 with UO-31 renal was 1.63 µM; with SNB-19 CNS, 1.95 µM; in the assay with DU-145 prostate, 0.888 µM; in the assay with K-562 leukemia, 0.215 µM; in the assay with SK-MEL-2 melanoma, 1.77 µM; in the assay with LOX IMVI melanoma it was 0.19 µM. Moreover, the GI50 was 1.75 µM in the assay on T-47D breast and 2.06 µM with RPMI-8226 leukemia. Further, the TGI turned out to be 3.01 µM with UO-31 renal; 3.66 µM in the assay on SNB-19 CNS; 2.46 µM in the assay on DU-145 prostate; 0.938 µM in the assay on K-562 leukemia; 3.41 µM in the assay with SK-MEL-2 melanoma; 0.398 µM with LOX IMVI melanoma. Also, the TGI stood at 3.66 µM with T-47D breast and 4.62 µM with RPMI-8226 leukemia.

As for `O=C1/C(=C/c2ccccc2)CN(C(=O)Oc2ccc([N+](=O)[O-])cc2)C/C1=C\c1ccccc1`, the GI50 in the assay with M19-MEL melanoma was 1.26 µM; in the assay on K-562 leukemia, 1.79 µM; with LOX IMVI melanoma it was 1.57 µM; in the assay on RPMI-8226 leukemia it was 0.0844 µM. Also, the TGI with M19-MEL melanoma is 3.56 µM and 2.75 µM; in the assay on K-562 leukemia, 5.33 µM; in the assay with SK-MEL-2 melanoma, 29.2 µM; with LOX IMVI melanoma, 1.26 µM and 3.36 µM; with RPMI-8226 leukemia it was 0.428 µM and 0.424 µM.

Take `CN1CCN(C(=S)SCN2C(=O)c3ccccc3S2(=O)=O)CC1`: the GI50 with UO-31 renal is 94.6 µM; in the assay with SNB-19 CNS, above 100 µM; in the assay on DU-145 prostate, 26.4 µM; in the assay with K-562 leukemia, 14.5 µM; with SK-MEL-2 melanoma it was above 100 µM; in the assay with LOX IMVI melanoma, 11.6 µM. The GI50 with T-47D breast was 11 µM; with RPMI-8226 leukemia, 2.22 µM. Further, the TGI with UO-31 renal is above 100 µM; in the assay on SNB-19 CNS it was above 100 µM; with DU-145 prostate, above 100 µM; in the assay with K-562 leukemia, 94.6 µM; in the assay with SK-MEL-2 melanoma, above 100 µM; in the assay with LOX IMVI melanoma it was 36.9 µM. Further, the results for the TGI in the assay on T-47D breast and with RPMI-8226 leukemia were above 100 µM and 6.87 µM, respectively.

Consider `C=C(CC1(CC(=C)c2ccc(C(=O)O)cc2)C(=O)N(C)C(=O)N(C)C1=O)c1ccc(C(=O)O)cc1`, for which the GI50 was 57.2 µM with UO-31 renal; above 100 µM in the assay with SNB-19 CNS; above 100 µM with DU-145 prostate; 35.9 µM with K-562 leukemia; above 100 µM in the assay on SK-MEL-2 melanoma; 80.8 µM in the assay on LOX IMVI melanoma. In addition, the figures for the GI50 in the assay on T-47D breast and in the assay with RPMI-8226 leukemia were 25.2 µM and 21.8 µM, respectively. Also, the TGI in the assay on UO-31 renal, with SNB-19 CNS, with DU-145 prostate, in the assay on K-562 leukemia, with SK-MEL-2 melanoma and with LOX IMVI melanoma was above 100 µM throughout. For the same molecule, the TGI in the assay on T-47D breast and with RPMI-8226 leukemia was above 100 µM each time.

Take `OCCCCC#Cc1ccccc1C#Cc1cnccn1`: the GI50 in the assay on UO-31 renal is 27 µM; in the assay with SNB-19 CNS it was 73.4 µM; in the assay with DU-145 prostate, 13.8 µM; with K-562 leukemia, 29.5 µM; with SK-MEL-2 melanoma, 70.7 µM; in the assay on LOX IMVI melanoma, 32 µM. Moreover, the GI50 in the assay on T-47D breast was 27.5 µM; in the assay on RPMI-8226 leukemia it was 26.7 µM. Moreover, the TGI with UO-31 renal, with SNB-19 CNS, in the assay on DU-145 prostate, in the assay on K-562 leukemia, in the assay on SK-MEL-2 melanoma and with LOX IMVI melanoma was above 100 µM throughout. In addition, the TGI in the assay on T-47D breast and in the assay with RPMI-8226 leukemia was above 100 µM in each case.

As for `O=[N+]([O-])c1cccc(-c2ncc(-c3ccc(Cl)cc3Cl)[nH]2)c1`, the GI50 with UO-31 renal is 5.18 µM; with SNB-19 CNS it was 7.85 µM; in the assay on DU-145 prostate, 4.46 µM; in the assay with K-562 leukemia, 2.1 µM; with SK-MEL-2 melanoma, 16.2 µM; with LOX IMVI melanoma, 3.35 µM. For the same molecule, the GI50 with T-47D breast is 6.88 µM; with RPMI-8226 leukemia it was 1.08 µM. Further, the TGI in the assay on UO-31 renal was 15.3 µM; in the assay on SNB-19 CNS it was 23.2 µM; with DU-145 prostate it was 10.5 µM; in the assay with K-562 leukemia, above 19.7 µM; in the assay on SK-MEL-2 melanoma it was 41.3 µM; with LOX IMVI melanoma it was 8.55 µM. Further, the TGI with T-47D breast amounted to 28.5 µM; in the assay with RPMI-8226 leukemia it was 4.68 µM.

In the case of `Cc1cc2c(cc1Cl)SC1=NN(C)C(c3ccccc3O)N1S2(=O)=O` (configuration not stated), the GI50 is 53.7 µM with UO-31 renal; 86.7 µM in the assay with SNB-19 CNS; 65.7 µM in the assay with DU-145 prostate; above 100 µM in the assay with K-562 leukemia; above 100 µM with SK-MEL-2 melanoma; 40.5 µM in the assay with LOX IMVI melanoma. Moreover, the GI50 with T-47D breast and with RPMI-8226 leukemia was above 100 µM throughout. Also, the TGI in the assay on UO-31 renal, in the assay on SNB-19 CNS, with DU-145 prostate, with K-562 leukemia, in the assay on SK-MEL-2 melanoma and in the assay with LOX IMVI melanoma was above 100 µM in each case. In addition, the TGI in the assay on T-47D breast and with RPMI-8226 leukemia was above 100 µM throughout.

Regarding `CCN(CC)CCOc1ccc(C2=C(c3ccccc3)CCc3cc(OC)ccc32)cc1`, the GI50 in the assay with UO-31 renal was 1.86 µM; with SNB-19 CNS, 2.38 µM; with DU-145 prostate it was 6.69 µM; in the assay on K-562 leukemia it was 2.8 µM; with SK-MEL-2 melanoma it was 2.15 µM; with LOX IMVI melanoma it was 1.75 µM. Also, the figures for the GI50 in the assay with T-47D breast and with RPMI-8226 leukemia were 0.811 µM and 2.62 µM, respectively. Also, the TGI was 4.13 µM with UO-31 renal; 7.42 µM in the assay on SNB-19 CNS; 17.5 µM with DU-145 prostate; 15.5 µM in the assay on K-562 leukemia; 4.67 µM in the assay with SK-MEL-2 melanoma; 3.64 µM with LOX IMVI melanoma. Moreover, the values for the TGI in the assay with T-47D breast and in the assay on RPMI-8226 leukemia were 6.86 µM and 11.3 µM, respectively.
